Data taken from BindingDB's records for doi:10.7270/Q2VX0F3D (Burnham Center For Chemical Genomics, 2012).

molecular target: T1, Corticotropin-releasing factor-binding protein (Homo sapiens, UniProt P24387); assay: activators of CRF receptor 2 with binding protein – uHTS hits, confirmation (AID 602473)
T1 sequence (P24387 whole entry): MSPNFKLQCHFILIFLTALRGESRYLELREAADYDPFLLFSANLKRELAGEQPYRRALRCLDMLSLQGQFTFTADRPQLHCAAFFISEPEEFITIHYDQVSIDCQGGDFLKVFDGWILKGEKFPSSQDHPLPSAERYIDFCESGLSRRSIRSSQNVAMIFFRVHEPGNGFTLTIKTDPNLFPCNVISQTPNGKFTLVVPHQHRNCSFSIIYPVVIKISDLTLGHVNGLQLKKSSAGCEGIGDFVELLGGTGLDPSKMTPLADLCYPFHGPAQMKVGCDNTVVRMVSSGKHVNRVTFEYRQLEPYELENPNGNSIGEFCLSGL

COc1ccc(C2=c3cc(F)ccc3=NC(c3ccco3)=NN2)cc1 [7-fluoranyl-2-(furan-2-yl)-5-(4-methoxyphenyl)-4H-1,3,4-benzotriazepine] was tested. Which EC50 did it give?
Its EC50 is over 53 µM.

For N#CC(C(=O)c1cccc(F)c1)c1nc2ccccc2s1 (configuration not stated) [(2Z)-2-(3H-1,3-benzothiazol-2-ylidene)-3-(3-fluorophenyl)-3-keto-propionitrile], which EC50 is on record?
Its EC50 is over 53 µM.

N#CC(C(=O)Cc1cccc2ccccc12)c1nc2ccccc2s1 (configuration not stated) [(2Z)-2-(3H-1,3-benzothiazol-2-ylidene)-4-naphthalen-1-yl-3-oxobutanenitrile] was tested. Which EC50 did it give?
Its EC50 is 3.14 µM.

How did the EC50 turn out when N#CC(C1=NCCC1)c1nc2ccccc2c(=O)[nH]1 (configuration not stated) [(2Z)-2-(4-oxo-1H-quinazolin-2-yl)-2-(2-pyrrolidinylidene)acetonitrile] was run?
Its EC50 is over 53 µM.

Which EC50 does the source give for O=NC1C(=O)N(Cc2c(Cl)cccc2Cl)c2ccccc21 (configuration not stated) [(3Z)-1-[(2,6-dichlorophenyl)methyl]-3-hydroxyimino-2-indolone] here?
Its EC50 is 4.67 µM.

Which EC50 does the source give for Cc1ccc2oc(=O)c(CC(=O)c3sc(C)nc3C)nc2c1 [(3Z)-3-[2-(2,4-dimethyl-1,3-thiazol-5-yl)-2-oxidanylidene-ethylidene]-6-methyl-4H-1,4-benzoxazin-2-one] here?
The EC50 was 7.67 µM.

Which EC50 does the source give for Cc1ccc2oc(=O)c(CC(=O)c3ccco3)nc2c1 [(3Z)-3-[2-(2-furanyl)-2-oxoethylidene]-6-methyl-4H-1,4-benzoxazin-2-one] here?
Its EC50 is 4.74 µM.

How did the EC50 turn out when COc1ccc(C(=O)Cc2nc3ccccc3n(-c3ccccc3)c2=O)cc1 [(3Z)-3-[2-(4-methoxyphenyl)-2-oxidanylidene-ethylidene]-1-phenyl-4H-quinoxalin-2-one] was run?
The EC50 was 7.85 µM.

Cc1ccc(C(=O)Cc2nc3ccccc3oc2=O)cc1 [(3Z)-3-[2-(4-methylphenyl)-2-oxidanylidene-ethylidene]-4H-1,4-benzoxazin-2-one] was tested. Which EC50 did it give?
Its EC50 is 11.4 µM.

Cc1ccc2oc(=O)c(CC(=O)c3cccs3)nc2c1 [(3Z)-3-[2-keto-2-(2-thienyl)ethylidene]-6-methyl-4H-1,4-benzoxazin-2-one] was tested. Which EC50 did it give?
Its EC50 is 4.87 µM.

How did the EC50 turn out when O=C(Cc1nc2ccccc2n(-c2ccccc2)c1=O)c1ccccc1 [(3Z)-3-phenacylidene-1-phenyl-4H-quinoxalin-2-one] was run?
Its EC50 is 11.6 µM.

For Cc1ccc2oc(=O)c(CC(=O)c3ccccc3)nc2c1 [(3Z)-6-methyl-3-(2-oxo-2-phenylethylidene)-3,4-dihydro-2H-1,4-benzoxazin-2-one], which EC50 is on record?
Its EC50 is 12.1 µM.

For CCOc1ccc(C2C(C(=O)c3ccc4c(c3)OCCO4)C(=O)C(=O)N2CCCN2CCOCC2)cc1 (configuration not stated) [(4E)-4-[2,3-dihydro-1,4-benzodioxin-6-yl(oxidanyl)methylidene]-5-(4-ethoxyphenyl)-1-(3-morpholin-4-ylpropyl)pyrrolidine-2,3-dione], which EC50 is on record?
The EC50 was over 53 µM.

For CCCCN1C(=O)NC(=O)C(C(=O)C=Cc2c[nH]c3ccccc23)C1=O (configuration not stated) [(5Z)-1-butyl-5-[(E)-3-(1H-indol-3-yl)-1-oxidanyl-prop-2-enylidene]-1,3-diazinane-2,4,6-trione], which EC50 is on record?
Its EC50 is 6.02 µM.

For O=CC(C=Nc1ccccn1)c1nc2cc(Cl)ccc2o1 (configuration not stated) [(Z)-2-(5-chloranyl-1,3-benzoxazol-2-yl)-3-(pyridin-2-ylamino)prop-2-enal], which EC50 is on record?
The EC50 was over 53 µM.

N#CCSc1nnc(CNc2ccc(F)cc2)o1 [({5-[(4-fluoroanilino)methyl]-1,3,4-oxadiazol-2-yl}sulfanyl)acetonitrile] was tested. Which EC50 did it give?
Its EC50 is over 53 µM.

How did the EC50 turn out when COc1ccc(C2=Nc3nnnn3C(c3cccc(OC)c3)C2)cc1 (configuration not stated) [MLS000036434] was run?
The EC50 was over 53 µM.

With CCOC(=O)C1=C(C)N=C(SCC(=O)OC)C(C#N)C1c1ccc(C(=O)OC)cc1 (configuration not stated) [MLS000039154] as the compound, how does the EC50 read?
The EC50 was over 53 µM.

With C=CCOC(=O)C1C(C)=NC2(O)c3ccccc3C(=O)C12O (configuration not stated) [MLS000068305] as the compound, how does the EC50 read?
Its EC50 is over 53 µM.

For Cc1c(Cl)ccc2c1NC(=O)C21NC(CCC(N)=O)c2c1c(O)n(-c1ccc(Cl)cc1)c2O (configuration not stated) [MLS000083515], which EC50 is on record?
Its EC50 is over 53 µM.

With CCCC(NCC(=O)O)=C1C(=O)CC(C)(C)C(C(=O)OC)C1=O (configuration not stated) [MLS000108316] as the compound, how does the EC50 read?
Its EC50 is over 53 µM.

With CSc1nnc(C)c(CC=Nc2ccc(C)cc2)n1 [MLS000326071] as the compound, how does the EC50 read?
The EC50 was 14.9 µM.

N#CC(C(=O)COC(=O)COc1cccc(Br)c1)c1nc2ccccc2[nH]1 (configuration not stated) [MLS000391269] was tested. Which EC50 did it give?
Its EC50 is over 53 µM.

With CC(=O)C1C(=O)C(=O)N(c2nccs2)C1c1ccccc1 (configuration not stated) [MLS000533923] as the compound, how does the EC50 read?
Its EC50 is over 53 µM.

How did the EC50 turn out when COC(=O)C1=C(C)N=C(C)C(C(=O)OC)C1/C=C/c1ccccc1 (configuration not stated) [MLS000571366] was run?
Its EC50 is over 53 µM.

With COc1ccc(/C=N/OCC(=O)NNC2=c3cc(Br)ccc3=NC2=O)cc1 [MLS000587830] as the compound, how does the EC50 read?
Its EC50 is over 53 µM.

With Nc1[nH]c(=O)sc1C=C1C=CC(=O)C=C1 [MLS000697264] as the compound, how does the EC50 read?
The EC50 was over 53 µM.

With CC1(C)CC(=O)C(=CNc2ccc(C(=O)c3ccccc3)cc2NC=C2C(=O)CC(C)(C)CC2=O)C(=O)C1 [MLS000724193] as the compound, how does the EC50 read?
Its EC50 is over 53 µM.

For Cn1c(SCC(=O)N/N=C/C2C=C([N+](=O)[O-])C=CC2=O)nnc1-c1ccccc1 (configuration not stated) [MLS000777077], which EC50 is on record?
The EC50 was over 53 µM.

Which EC50 does the source give for Cc1cc(C)n(CCC(=O)NNC2=c3cc(Br)ccc3=NC2=O)n1 [MLS000777238] here?
The EC50 was over 53 µM.

With CC(=O)C1C(C)=NC(=S)NC1c1cc([N+](=O)[O-])ccc1O (configuration not stated) [MLS000777581] as the compound, how does the EC50 read?
The EC50 was over 53 µM.

With O=C(Nn1c(O)csc1=S)c1cccnc1 [MLS000780148] as the compound, how does the EC50 read?
Its EC50 is over 53 µM.

COc1ccc(C(C)N=Nc2ccc([N+](=O)[O-])cc2S(=O)(=O)Nc2ccccc2C(=O)O)c(OC)c1 (configuration not stated) [MLS002249507] was tested. Which EC50 did it give?
The EC50 was 38.6 µM.

Which EC50 does the source give for Cn1c(O)c(N=Nc2ccc([N+](=O)[O-])cc2)sc1=S [MLS002608645] here?
Its EC50 is 1.69 µM.

With CN(C)c1ccc(C=Nn2c(O)csc2=S)c(Cl)c1 [MLS002919800] as the compound, how does the EC50 read?
Its EC50 is over 53 µM.

For Oc1csc(=S)n1N=Cc1c(F)cccc1Cl [MLS002919802], which EC50 is on record?
Its EC50 is over 53 µM.

Which EC50 does the source give for Cc1cc2c(cc1Br)=NC(=O)C=2NNC(=O)C1CC1c1ccccc1 (configuration not stated) [N'-(6-bromo-5-methyl-2-oxo-3-indolyl)-2-phenyl-1-cyclopropanecarbohydrazide] here?
Its EC50 is over 53 µM.

For COc1ccccc1NS(=O)(=O)c1ccc(N=NCc2c(C)nn(-c3ccccc3)c2N2CCCC2)c([N+](=O)[O-])c1 [N-(2-methoxyphenyl)-4-[(2E)-2-[(3-methyl-1-phenyl-5-pyrrolidin-1-yl-pyrazol-4-yl)methylidene]hydrazinyl]-3-nitro-benzenesulfonamide], which EC50 is on record?
Its EC50 is over 53 µM.

Cc1noc(NS(=O)(=O)c2ccc(N=CCC(=O)c3cccc4ccccc34)cc2)c1C [N-(3,4-dimethyl-1,2-oxazol-5-yl)-4-[[(Z)-3-naphthalen-1-yl-3-oxidanylidene-prop-1-enyl]amino]benzenesulfonamide] was tested. Which EC50 did it give?
The EC50 was over 53 µM.

Cc1ccc(C)c2sc(NC(=O)c3ccc(-n4c(O)ccc4O)cc3)nc12 [N-(4,7-dimethyl-1,3-benzothiazol-2-yl)-4-(2,5-dioxopyrrolidin-1-yl)benzamide] was tested. Which EC50 did it give?
Its EC50 is over 53 µM.

CN1c2ccccc2C(=O)C(C(=S)Nc2ccc(Cl)cc2)S1(=O)=O (configuration not stated) [N-(4-chlorophenyl)-4-hydroxy-1-methyl-2,2-dioxo-1,2-dihydro-2lambda~6~,1-benzothiazine-3-carbothioamide] was tested. Which EC50 did it give?
The EC50 was over 53 µM.

For CCCCN(C(=O)c1ccc2c(c1)S(=O)(=O)NC1=CCCCCN12)c1c(N)n(CCCC)c(=O)[nH]c1=O [N-(6-amino-1-butyl-2,4-dioxo-5-pyrimidinyl)-N-butyl-5,5-dioxo-8,9,10,11-tetrahydro-7H-azepino[2,1-c][1,2,4]benzothiadiazine-3-carboxamide], which EC50 is on record?
The EC50 was over 53 µM.

How did the EC50 turn out when CCC(C)(C)NC(=O)C(c1ccccc1F)N(Cc1ccco1)C(=O)c1csnn1 (configuration not stated) [N-[1-(2-fluorophenyl)-2-(2-methylbutan-2-ylamino)-2-oxoethyl]-N-(2-furanylmethyl)-4-thiadiazolecarboxamide] was run?
The EC50 was 15.6 µM.

How did the EC50 turn out when O=NCc1ccc(Oc2ccc(F)cc2)c([N+](=O)[O-])c1 [N-[[4-(4-fluorophenoxy)-3-nitrophenyl]methylidene]hydroxylamine] was run?
The EC50 was over 53 µM.

Which EC50 does the source give for COC(=O)C1=Nc2nnnn2C(c2ccc(O)c(OC)c2)C1C(=O)c1ccccc1 (configuration not stated) [SMR000020111] here?
The EC50 was over 53 µM.

How did the EC50 turn out when COc1ccc(C2=Nc3nnnn3C(c3ccc(C)cc3)C2)cc1 (configuration not stated) [SMR000035317] was run?
Its EC50 is over 53 µM.

Which EC50 does the source give for CCc1ccccc1-n1c(O)c2c(c1O)CC(C)=C(C)C2 [SMR000104383] here?
Its EC50 is over 53 µM.

With CC(=CN=Nc1nc(C)cc(C)n1)Cc1ccc(C(C)C)cc1 [SMR000146220] as the compound, how does the EC50 read?
Its EC50 is over 53 µM.

For Cc1[nH]c2ccccc2c1/C=C1\N=C(c2ccc(C(F)(F)F)cc2)OC1=O [SMR000152363], which EC50 is on record?
Its EC50 is 10.2 µM.

How did the EC50 turn out when Cc1ccc(-n2[nH]c(C)c(CN=Nc3ccc([N+](=O)[O-])cc3[N+](=O)[O-])c2=O)cc1 [SMR000171521] was run?
Its EC50 is over 53 µM.

For Cc1ccc(S(=O)(=O)N(CC(=O)NNC2=c3ccccc3=NC2=O)c2ccc(C)c(C)c2)cc1 [SMR000207608], which EC50 is on record?
Its EC50 is over 53 µM.

Which EC50 does the source give for Cc1ccc(CSC(=Nc2ccc(F)cc2)C(C#N)C#N)cc1 [SMR000217751] here?
The EC50 was over 53 µM.

With Cc1nn(-c2ccccc2)c(N2CCCC2)c1CN=Nc1ccc(S(N)(=O)=O)cc1[N+](=O)[O-] [SMR000243538] as the compound, how does the EC50 read?
The EC50 was over 53 µM.

How did the EC50 turn out when COc1ccc(C(=O)C2C(=O)C(=O)N(CCN(C)C)C2c2cccnc2)cc1C (configuration not stated) [SMR000287983] was run?
Its EC50 is over 53 µM.

How did the EC50 turn out when COc1ccc(C2c3c(n(C)c(=O)n(C)c3=O)N=C3CC(C)(C)CC(=O)C32)cc1OC (configuration not stated) [SMR000291470] was run?
Its EC50 is over 53 µM.

How did the EC50 turn out when O=C1C=Cc2cc(=C3C=CCC=N3)c(=O)oc2=C1CN1CCN(CCO)CC1 [SMR000298878] was run?
The EC50 was 6.05 µM.

With O=c1nncc(N=NC=CCc2ccccc2)[nH]1 [SMR000413415] as the compound, how does the EC50 read?
Its EC50 is over 53 µM.

With Nc1ccccc1Sc1cc(O)n(-c2ccc3c(c2)OCO3)c1O [SMR000459840] as the compound, how does the EC50 read?
The EC50 was over 53 µM.

How did the EC50 turn out when CC1=NC(=O)NC(c2cccc3ccccc23)C1C(=O)OC(C)(C)C (configuration not stated) [SMR000543036] was run?
Its EC50 is over 53 µM.

With COc1ccc(Cn2cc(O)n(-c3cccc(Cl)c3)c2=S)cc1OC [SMR000564410] as the compound, how does the EC50 read?
The EC50 was over 53 µM.

Which EC50 does the source give for Cc1cc(C)cc(NC(=O)c2ccc(-n3c(O)c4c(c3O)CCCC4)cc2)c1 [SMR000664971] here?
The EC50 was over 53 µM.

Which EC50 does the source give for COc1cccc(C2C(C(=O)c3ccc(C)o3)C(=O)C(=O)N2CCN2CCOCC2)c1OC (configuration not stated) [SMR000665042] here?
Its EC50 is over 53 µM.
